Experimental data as given in US9283235B2, “Intermittent lowering of cortisol as treatment of clinical conditions associated with abnormal concentrations of cortisol in animals” (Stegram Pharmaceuticals Limited, priority 2001, dated 2016).
Values joined by “and” are separate entries in the source; they are usually repeats but may differ in a detail not shown here. Equal values may be shown once. “Also recorded” adds a separate entry of the source.

Assays:
[1] = test system: horses with equine Cushing's disease; test: Clinical signs in horses with equine Cushing's disease, trilostane once daily in feed for 30 days; type: in vivo, horse
Method: (§1) The ability of intermittent administration of Trilostane to block adrenal steroidogenesis was assessed in twenty horses (mean age 21, SD 5.7 years) with equine Cushing's disease. The combined dexamethasone suppression thyrotropin releasing hormone (TRH) stimulation test (17 horses) or TRH stimulation test (3 horses) was used as a standard test of function of the hypothalamic-pituitary-adrenal axis. Serum samples for cortisol analysis were collected via indwelling catheter at 4-hourly intervals over 24 hours on each of the test periods. These were before treatment then at 210 minutes (30 min after I mg i.v. TRH) and 22 hours after […] dexamethasone i.m. Affected horses were treated with 0.4 to 1 mg/kg, (mean 0.5 mg/kg) trilostane administered once daily in feed for a period of 30 days. After 30 days endocrine testing was repeated. Serum cortisol before and after treatment was compared by paired t-test.

[2] = test system: serum cortisol; test: Mean serum cortisol over 24 hours (4-hourly samples) in horses with Cushing's disease; type: in vivo, horse
Method: as §1

[3] = test system: dogs with Alopecia X; test: Treatment of Alopecia X in dogs, hair re-growth; type: in vivo, dog; conditions: once-daily dose
Description: To study the effect of trilostane in the treatment of Alopecia X a total of 11 dogs with the condition were examined along with 10 unaffected dogs. The hormonal abnormalities were identified, with increases in cortisol and 17 OHP concentrations. Trilostane in a once-daily dose was given to the affected animals. Five of the six Pomeranians (83%) and all four of the Miniature poodles have responded to trilostane, showing hair re-growth in the affected areas.

[4] = test system: advanced breast cancer; conditions: published studies (Williams et al 1993; Ingle et al 1990); cited from earlier work
[5] = mean of all horses, once daily 0.4-1.0 mg/k for 30 days

SMILES: CC12CCC3C(CC[C@@]45O[C@@H]4C(=O)C(C#N)CC35C)C1CC[C@@H]2O (stereo partly drawn) [Trilostane, 2α-cyano-4α,5α-epoxyandrostan-17β-ol-3-one]
- Lethargy / demeanour after therapy ([1]; lethargy present in 19 horses): improvement in demeanour was evident in all horses
- Polyuria and/or polydipsia after treatment ([1]; present in 11 horses): reduced ill all
- Recurrent, chronic or persistent laminitis improved or showed no recurrence ([1]; present in 17 horses): 14 cases
- Severe, acute laminitis on presentation, response ([1]; three horses, rotation and sinking on radiographs): did not respond to trilostane
- Overall clinical response ([1]; trilostane once-per-day): a clinical response was observed; also recorded: improvement in most of the clinical signs in all horses
- Change of serum cortisol concentrations pre vs post trilostane, in words ([2]; horses, once daily dose, 30 days): only a small drop in cortisol levels; also recorded: no apparent change in cortisol concentrations
- Mean Cortisol concentrations over 24 hrs, POST TREATMENT Mean ([2]; individual horses, mean of 6 samples at 4-hourly intervals, after 30 days of oral trilostane): 108 and 203.7 and 157.3 and 263.3 and 143 and 193 and 122.8 and 134.4 and 112 and 152.3 and 113 and 194.7 and 94.8 and 112.3 and 183.3 and 245.5 and 158 and 164.5 and 160 and 149.8
- Serum cortisol, Post Trilosane Mean ([2]; individual horses, mean of 6 samples over 24 hours, once daily 0.4-1.0 mg/k for 30 days, listed as Trilosane): 108 nmol/L and 203.7 nmol/L and 157.3 nmol/L and 263.3 nmol/L and 143 nmol/L and 193 nmol/L and 122.8 nmol/L and 134.4 nmol/L and 112 nmol/L and 152.3 nmol/L and 113 nmol/L and 194.7 nmol/L and 94.8 nmol/L and 112.3 nmol/L and 183.3 nmol/L and 245.5 nmol/L and 158 nmol/L and 164 nmol/L and 1 nmol/L and 149 nmol/L
- Serum cortisol, Difference, pre-post ([2]; individual horses, once daily 0.4-1.0 mg/k for 30 days, listed as Trilosane): -7.5 nmol/L and -61.2 nmol/L and -0.1 nmol/L and -6.8 nmol/L and 4 nmol/L and -38 nmol/L and -3 nmol/L and -17.1 nmol/L and 11 nmol/L and 10.4 nmol/L and 3.6 nmol/L and 34.6 nmol/L and -2.5 nmol/L and 2.4 nmol/L and -24.5 nmol/L and -80.5 nmol/L and -31.5 nmol/L and 5.5 nmol/L and 15.2 nmol/L and 3.4 nmol/L
- Serum cortisol, Difference, pre-post, group mean [2, 5]: -9.1 ± 26.9 nmol/L
- Serum cortisol, Post Trilosane Mean, group mean [2, 5]: 158.3 nmol/L
- Miniature poodles responding, hair re-growth in the affected areas [3]: all four
- Pomeranians responding, hair re-growth in the affected areas ([3]; five of six): 83%
- Response rate [4]: 29% and 38%
